Data on 6 compounds can be found in patent US7205317B2, “4[piperidin-4-yliden-(3-carbamoylpheny)methyl]benzamide derivatives and their use for the treatment of pain spinal injuries or gastrointestinal disorders” (AstraZeneca AB, priority 2001, dated 2007).

SMILES strings stand for the structures.

The target of assay [1] is T1, cloned human δ receptor (HDELTA) (Homo sapiens, UniProt P41143).
T1 construct: expressed in transfected cells; host or cells: human 293S (HEK-293S) cells, geneticin-selected
Kind of assay: Binding assay, displacement of radioligand on membranes of 293S cells expressing cloned human δ receptor. Particulars: 293S cell membranes.

The target of assay [2] is T2, delta receptors, rat brain membranes (Rattus norvegicus, UniProt P33533).
T2 construct: from tissue; host or cells: rat brain homogenate
Nature of the assay: GTP[γ]35S binding functional assay, homogenised rat brain. Format: biochemical. On the procedure: (§1) • A. Human 293S cells expressing cloned human μ, δ, and κ receptors and neomycin resistance were grown in suspension at 37° C. and 5% CO2 in shaker flasks containing calcium-free DMEM 10% FBS, 5% BCS, 0.1% Pluronic F-68, and 600 μg/ml geneticin. • B. Mouse and rat brains were weighed and rinsed in ice-cold PBS (containing 2.5 mM EDTA, pH 7.4). The brains were homogenized with a polytron for 15 sec (mouse) or 30 sec (rat) in ice-cold lysis buffer (50 mM Tris, pH 7.0, 2.5 mM EDTA, with phenylmethylsulfonyl fluoride added just prior use to […] from a 0.5M stock in DMSO:ethanol). Membrane Preparation
(§2) The agonist activity of the compounds is measured by determining the degree to which the compounds receptor complex activates the binding of GTP to G-proteins to which the receptors are coupled. In the GTP binding assay, GTP[γ]^35S is combined with test compounds and membranes from HEK-293S cells expressing the cloned human opioid receptors or from homogenised rat and mouse brain. Agonists stimulate GTP[γ]^35S binding in these membranes. The EC50 and Emax values of compounds are determined from dose-response curves. Right shifts of the dose response curve by the delta antagonist naltrindole are performed to verify that agonist activity is mediated through delta receptors.

The target of assay [3] is T1, cloned human δ receptor (HDELTA). Nature of the assay: GTP[γ]35S binding functional assay, membranes from HEK-293S cells expressing cloned human opioid receptors. In kind it is biochemical. As to the method: as §1
Cells were pelleted and resuspended in lysis buffer (50 mM Tris, pH 7.0, 2.5 mM EDTA, with PMSF added just prior to use to 0.1 mM from a 0.1 M stock in ethanol), incubated on ice for 15 min, then homogenized with a polytron for 30 sec. The suspension was spun at 1000 g (max) for 10 min at 4° C. The supernatant was saved on ice and the pellets resuspended and spun as before. The supernatants from both spins were combined and spun at 46,000 g (max) for 30 min. The pellets were resuspended in cold Tris buffer (50 mM Tris/Cl, pH 7.0) and spun again. The final pellets were resuspended in membrane buffer (50 mM Tris, 0.32 M sucrose, pH 7.0). Aliquots (1 ml) in polypropylene tubes were frozen in dry ice/ethanol and stored at −70° C. until use. The protein concentrations were determined by a modified Lowry assay with sodium dodecyl sulfate.
as §2

For assay [4], the target named is T3, delta receptors, mouse brain membranes (Mus musculus, UniProt P32300).
T3 construct: from tissue; host or cells: mouse brain homogenate
Nature of the assay: GTP[γ]35S binding functional assay, homogenised mouse brain. Format: biochemical. On the procedure:
as §1, §2
In general terms: GTPγS is a poorly hydrolysed GTP analogue; its binding reports G protein activation.

T1 sequence (P41143 whole entry): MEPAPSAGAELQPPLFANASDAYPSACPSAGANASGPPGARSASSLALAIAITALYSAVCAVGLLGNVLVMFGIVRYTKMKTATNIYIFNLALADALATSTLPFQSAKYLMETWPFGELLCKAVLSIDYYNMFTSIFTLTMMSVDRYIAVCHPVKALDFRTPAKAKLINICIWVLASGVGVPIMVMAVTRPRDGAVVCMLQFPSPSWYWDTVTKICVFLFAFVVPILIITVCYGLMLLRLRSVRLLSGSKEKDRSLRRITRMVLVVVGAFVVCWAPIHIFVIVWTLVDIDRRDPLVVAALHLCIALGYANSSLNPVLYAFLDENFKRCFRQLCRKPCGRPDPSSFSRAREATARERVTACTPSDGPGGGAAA
T3 sequence (P32300 whole entry): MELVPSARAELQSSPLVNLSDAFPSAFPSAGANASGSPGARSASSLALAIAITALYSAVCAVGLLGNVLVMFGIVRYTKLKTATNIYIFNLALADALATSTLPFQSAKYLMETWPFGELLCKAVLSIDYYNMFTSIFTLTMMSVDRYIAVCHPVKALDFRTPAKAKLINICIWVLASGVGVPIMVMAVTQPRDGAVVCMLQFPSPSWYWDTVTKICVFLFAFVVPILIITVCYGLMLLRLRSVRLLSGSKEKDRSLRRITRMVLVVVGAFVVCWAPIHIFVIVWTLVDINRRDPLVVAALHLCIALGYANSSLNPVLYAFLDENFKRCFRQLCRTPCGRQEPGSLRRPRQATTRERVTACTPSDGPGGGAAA
T2 sequence (P33533 whole entry): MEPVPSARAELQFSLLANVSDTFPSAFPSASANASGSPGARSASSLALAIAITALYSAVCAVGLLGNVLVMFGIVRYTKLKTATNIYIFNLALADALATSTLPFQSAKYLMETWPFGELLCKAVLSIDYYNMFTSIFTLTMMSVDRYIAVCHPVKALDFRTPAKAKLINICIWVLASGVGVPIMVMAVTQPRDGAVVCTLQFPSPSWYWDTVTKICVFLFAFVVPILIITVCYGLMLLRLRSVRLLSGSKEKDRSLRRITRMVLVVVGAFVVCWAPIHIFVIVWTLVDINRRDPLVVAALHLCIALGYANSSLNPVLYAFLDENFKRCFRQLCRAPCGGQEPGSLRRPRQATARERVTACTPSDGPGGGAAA

Take `CCN(CC)C(=O)c1ccc(C(=C2CCN(Cc3ccoc3)CC2)c2cccc(C(N)=O)c2)cc1` [5c]: the concentration for half-maximal inhibition (IC50) in assay [1] worked out at 0.246 nM. In assay [2], this compound registered an EC50 of 0.367 nM and an Emax of 170%.

Compound `CCN(CC)C(=O)c1ccc(C(=C2CCN(Cc3ccccn3)CC2)c2cccc(C(N)=O)c2)cc1` [5d, N,N-Diethyl-4-[1-(2-pyridine)methyl-piperidin-4-ylidene-(3-carbamoylphenyl)-methyl]-benzamide] displayed an IC50 in assay [1] of 0.278 nM. In addition, in assay [2], it took 0.396 nM to reach a half-maximal effect (EC50) and the maximal response (Emax) stood at 180%.

In assay [1], `CCN(CC)C(=O)c1ccc(C(=C2CCN(Cc3cccs3)CC2)c2cccc(C(N)=O)c2)cc1` [5a] came in with a half-maximal inhibitory concentration (IC50) of 0.373 nM. Also, the results for the concentration for a half-maximal effect (EC50) in assay [2], in assay [3] and in assay [4] were 0.613 nM, 0.158 nM and 0.818 nM, respectively. Also, the values for the Emax in assay [2], in assay [3] and in assay [4] were 181%, 98.1% and 170%, respectively.

Take `CCN(CC)C(=O)c1ccc(C(=C2CCN(Cc3ccco3)CC2)c2cccc(C(N)=O)c2)cc1` [5b]: the 50% inhibitory concentration (IC50) in assay [1] worked out at 0.282 nM. In assay [2], the concentration for a half-maximal effect (EC50) worked out at 0.633 nM and the Emax turned out to be 149%.

In assay [1], `CCN(CC)C(=O)c1ccc(C(=C2CCN(Cc3ccccc3)CC2)c2cccc(C(N)=O)c2)cc1` [3b, N,N-Diethyl-4-[1-benzylpiperidin-4-ylidene(3-carbamoylphenyl)-methyl]-benzamide] had an IC50 of 0.548 nM. The results for the concentration for a half-maximal effect (EC50) in assay [2], in assay [3] and in assay [4] were 0.403 nM, 0.091 nM and 0.539 nM, respectively. Also, the maximum response (Emax) in assay [2] was 179%; in assay [3] it was 93.8%; in assay [4], 165%.

In assay [1], `CCN(CC)C(=O)c1ccc(C(=C2CCN(Cc3ccsc3)CC2)c2cccc(C(N)=O)c2)cc1` [5e, N,N-Diethyl-4-[1-(3-thiophene)methyl-piperidin-4-ylidene-(3-carbamoylphenyl)-methyl]-benzamide] came in with an IC50 of 0.235 nM.

Usually IC50 stands for the concentration that gives 50% inhibition. A word on the EC50: it is the concentration that produces a half-maximal response. Low readings indicate higher potency in that assay, high ones lower potency in that assay. In general, Emax refers to the size of the effect at its maximum, as opposed to the concentration needed.
